Like-named read-outs stand apart in the source and are kept apart here.
Key:
TZM-bl cells = test: Cellular viability assay (alamarBlue) in TZM-bl cells
From the text: In an embodiment, the cellular cytotoxicity of 17 spiro-β-lactams was investigated in TZM-bl cells using the AlamarBlue assay as recommended by the manufacturer (Invitrogen, USA). TZM-bl, previously designated JC53-bl (clone 13) is a HeLa cell line. The parental cell line (JC.53) stably expresses large amounts of CD4, CCR5 and CXCR4. The TZM-bl cell line was generated from JC.53 cells by introducing separate integrated copies of the luciferase and […] genes under control of the HIV-1 promoter. The TZM-bl cell line is highly sensitive to infection with diverse isolates of HIV.
In an embodiment, the cellular viability assay was carried out as follows: the potential in vitro cytotoxicity of all BSS compounds was evaluated in TZM-bl cells. TZM-bl cells (10000 cells/well in 96-well plates) were incubated in absence or presence of serial-two-fold dilutions of the compounds in growth medium (GM), with starting concentration of 100 μg/ml and a final concentration of 0.781 μg/ml. After 48 hours, cell viability was examined with alamarBlue reagent (Invitrogen, USA) according to manufacturer's instructions. Briefly, 10 μl of alamarBlue reagent was added to each well. After 4 hours at 37° C., the fluorescence was measured in Tecan Infinite M200 (excitation wavelength 550 nm and emission wavelength 600 nm).
In an embodiment, at least two independent experiments have been performed for each cytotoxicity analysis.
In an embodiment, for each assay there were medium controls (only growth medium), cell controls (cells without test compound) and cytotoxicity controls (a compound that kill cells—SDS).

[1] = test system: Pseudomonas aeruginosa (Clinical strain); test: Anti-bacterial activity, agar diffusion method; format: cell-based; conditions: at the concentration of 1 mg/ml
Description: (§1) In an embodiment, anti-bacterial activity of the compounds now disclosed was determined according to CLSI guidelines. The following bacteria were used: reference strains E. coli ATCC 10536, Staphylococcus aureus ATCC 6538, Bacillus subtilis ATCC 6633 and Enterococcus faecalis ATCC 29212; clinical strains of E. coli and Pseudomonas aeruginosa isolated in our laboratory; and strains of Lactobacillus rhamnosus and Lactobacillus plantarum also isolated in our laboratory. The Minimum Inhibitory Concentration (MIC) was determined by the agar diffusion method, in plates of Mueller-Hinton agar or Rogosa agar (for Lactobacilli). Briefly, 10^8 cfu/ml bacterial suspensions were prepared in sterile water and spread in the culture media. Sterile disks containing different concentrations of P3 were placed on the inoculated surface. Plates were incubated at 37° C. for 24 h or 48 h. Lactobacilli were incubated at microaerophilic conditions. A negative control made of sterile water was used. Disks of amoxicillin and imipenem were used as positive controls.

[2] = test system: Enterococcus faecalis ATCC 29212; test: Anti-bacterial activity, agar diffusion method; format: cell-based; conditions: at the concentration of 1 mg/ml
Description: as §1

[3] = test system: Staphylococcus aureus ATCC 6538; test: Anti-bacterial activity, agar diffusion method; format: cell-based; conditions: at the concentration of 1 mg/ml
Description: as §1

Lactobacillus rhamnosus = test: Anti-bacterial activity, agar diffusion method; format: cell-based; conditions: at the concentration of 1 mg/ml
Description: as §1

[4] = test system: Escherichia coli (Clinical strain); test: Anti-bacterial activity, agar diffusion method; format: cell-based; conditions: at the concentration of 1 mg/ml
Description: as §1

[5] = test system: Escherichia coli ATCC 10536; test: Anti-bacterial activity, agar diffusion method; format: cell-based; conditions: at the concentration of 1 mg/ml
Description: as §1

Lactobacillus plantarum = test: Anti-bacterial activity, agar diffusion method; format: cell-based; conditions: at the concentration of 1 mg/ml
Description: as §1

[6] = test system: Bacillus subtillis ATCC 6633; test: Anti-bacterial activity, agar diffusion method; format: cell-based, Bacillus subtilis; conditions: at the concentration of 1 mg/ml
Description: as §1

P. berghei liver stages = test: In vitro activity against the liver stage of Plasmodium infection (luciferase assay in Huh7 cells); format: cell-based, Plasmodium berghei; conditions: P. berghei liver stages in Huh7 cells
Description: FIG. 6: Compound activity against P. berghei liver stages. Anti-Plasmodial activity (infection axis, bars) and toxicity to hepatoma cells (cell confluency axis, circles) are shown. Infection loads of Huh7 cells, a human hepatoma cell line, were determined by bioluminescence measurements of cell lysates 48 h after infection with luciferase-expressing P. berghei parasites. Luciferase assay in 96 well-plate; 10 000 Huh7 cells/well+10 000 PbA-LuciGFPcon spz/well.
In an embodiment, the in vitro activity against the liver stage of Plasmodium infection was also carried out: inhibition of liver stage Plasmodium infection by test compounds was determined by measuring the luminescence intensity in Huh-7 cells infected with a firefly luciferase-expressing P. berghei line, as previously described. Briefly, Huh-7 cells, a human hepatoma cell line, were cultured in 1640 RPMI medium supplemented with 10% v/v fetal bovine serum, 1% v/v nonessential amino acids, 1% v/v penicillin/streptomycin, 1% v/v glutamine, and 10 mM 4-(2-hydroxyethyl)-1-piperazineethanesulfonic acid (HEPES), pH 7, and maintained at 37° C. with 5% CO2. For infection assays, Huh-7 cells (1.0×10^4 per well) were seeded in 96-well plates the day before drug treatment and infection. The medium was replaced by medium containing the appropriate concentration of each compound approximately 1 h prior to infection with sporozoites freshly obtained through disruption of salivary glands of infected female Anopheles stephensi mosquitoes. Sporozoite addition was followed by centrifugation at 1700×g for 5 min. Parasite infection load was measured 48 h after infection by a bioluminescence assay (Biotium). The effect of the compounds on the viability of Huh-7 cells was assessed by the AlamarBlue assay (Invitrogen, U.K.) using the manufacturer's protocol.

HIV = test: Anti-HIV activity evaluation (HIV type not specified); format: cell-based
Description: (§2) In an embodiment, TZM-bl cells (AIDS Research and Reference Reagent Program, National Institutes of Health, USA) were cultured in complete growth medium that consists of Dulbecco's minimal essential medium (DMEM) supplemented with 10% fetal bovine serum (FBS), 100 U/ml of penicillin-streptomycin (Gibco/Invitrogen, USA), 1 mM of sodium pyruvate (Gibco/Invitrogen, USA), 2 mM of L-glutamine (Gibco/Invitrogen, USA) and 1 mM of non-essential amino acids (Gibco/Invitrogen, USA).
(§3) In an embodiment, the primary isolates 93AOHDC249, 93AOHDC250, 01PTHDECJN and 03PTHCC9, used in this study were previously isolated, titrated and characterized for co-receptor usage. HIV reference strain SG3.1 was obtained by transfection of HEK293T cells with pSG3.1 (HIV-1) plasmid using Fugene 6 reagent (Roche, Switzerland) according to manufacturer's instructions.
(§4) In an embodiment, the 50% tissue culture infectious dose (TCID50) of the virus was determined in a single-round viral infectivity assay using a luciferase reporter gene assay in TZM-bl cells and calculated using the statistical method of Reed and Muench^27.
In an embodiment, the antiviral activity of the compounds was determined in a single-round assay with TZM-bl cells as previously described ^26. […] After 48 h of infection, luciferase expression was quantified with the One-Glow luciferase assay substrate reagent (Promega, USA) according to manufacturer's instructions. […] After an incubation of 3 minutes at room temperature to allow complete cell lysis luminescence was measured in Tecan Infinite M200. Background luminescence was measured by using control wells that contained only target cells and GM. […]
In an embodiment, dose-response curves were estimated from the percentage of inhibition of infection (y-axis) against logo of concentration of each compound (x-axis) using the sigmoidal dose-response equation (variable slope) in GraphPad Prism version 5.00 for Windows (GraphPad Software, San Diego Calif. USA, www.graphpad.com). IC50 and IC90 values were determined from this curve. […]

HIV-1 = conditions: for IC50 / IC90: TZM-bl cells
Description: as §2, §3, §4
(§5) In an embodiment, the antiviral activity of the compounds was determined in a single-round assay with TZM-bl cells as previously described ^26. Cells were infected with 200 TCID50 of virus in the presence of serial fold dilutions of the BSS compounds in GM, supplemented with DEAE-dextran (19.7 μg/ml). After 48 h of infection, luciferase expression was quantified with the One-Glow luciferase assay substrate reagent (Promega, USA) according to manufacturer's instructions. Briefly, a volume of reagent equal to that of the culture medium in each well was added. For 96-well plates, typically 100 μl of reagent is added to the cells grown in 100 μl of medium. After an incubation of 3 minutes at room temperature to allow complete cell lysis luminescence was measured in Tecan Infinite M200. Background luminescence was measured by using control wells that contained only target cells and GM. Maraviroc (CCR5 antagonist), T1249 (fusion inhibitor) and AMD3100 (CXCR4 antagonist) were used as positive controls of the antiviral activity. At least two independent experiments were performed for each analysis and each assay was set up in triplicate wells.
(§6) In an embodiment, dose-response curves were estimated from the percentage of inhibition of infection (y-axis) against logo of concentration of each compound (x-axis) using the sigmoidal dose-response equation (variable slope) in GraphPad Prism version 5.00 for Windows (GraphPad Software, San Diego Calif. USA, www.graphpad.com). IC50 and IC90 values were determined from this curve. IC50 and IC90 values correspond to the concentration of compound that inhibits viral replication in 50% and 90%, respectively.

HIV-2 = test system: HIV-2
Description: as §2, §3, §4, §5, §6

[7] = 93AOHDC249, CCR5 tropic HIV-1 primary isolate
[8] = SG3.1, CXCR4 tropic HIV-1 adapted isolate
[9] = 03PTHCC19, CCR5 tropic HIV-2 isolate, TZM-bl cells, wa = without antiviral activity

CC(=O)C1C(C(=O)OCc2ccccc2)=CCC12C(=O)N1[C@@H](C(=O)OC(c3ccccc3)c3ccccc3)C(C)(C)S[C@@H]12 (some centres unmarked) [BSS-793B]
CC50 (TZM-bl cells): 47.7 µM

CC(=O)C1=NNC(c2ccccc2)C12C(=O)N1[C@@H](C(=O)OC(c3ccccc3)c3ccccc3)C(C)(C)S[C@@H]12 (some centres unmarked) [BSS-974C]
CC50 (TZM-bl cells): 80.8 µM

CCOC(=O)C1=NNC2(C1)C(=O)N1C(C(=O)O)C(C)(C)SC12 (centres unmarked) [BSS-597, Spiro[penicillanic-6,5′-(3-ethoxycarbonyl-2-pyrazoline)] acid]
inhibitory activity [1]: no inhibitory activity
inhibitory activity [2]: no inhibitory activity
inhibitory activity [3]: no inhibitory activity
inhibitory activity (Lactobacillus rhamnosus): no inhibitory activity
inhibitory activity [4]: no inhibitory activity
inhibitory activity [5]: no inhibitory activity
inhibitory activity (Lactobacillus plantarum): no inhibitory activity
inhibitory activity [6]: no inhibitory activity
CC50 (TZM-bl cells): 152 µM

CC1(C)S[C@H]2N(C(=O)C23C(C(=O)c2ccccc2)N=NC3c2ccccc2)[C@H]1C(=O)OC(c1ccccc1)c1ccccc1 (some centres unmarked) [BSS-971S]
CC50 (TZM-bl cells): 82 µM

COC(=O)C1=C(C(=O)OC)[C@@]2(N=N1)C(=O)N1[C@@H](C(=O)O)C(C)(C)S[C@@H]12 [BSS-587, (2,3′R,5R)-4′,5′-bis(methoxycarbonyl)-3,3-dimethyl-7-oxo-4-thia-1-azaspiro[bicyclo[3.2.0]heptane-6,3′-pyrazole]-2-carboxylic acid]
inhibitory activity [1]: no inhibitory activity
inhibitory activity [2]: no inhibitory activity
inhibitory activity [3]: no inhibitory activity
inhibitory activity (Lactobacillus rhamnosus): no inhibitory activity
inhibitory activity [4]: no inhibitory activity
inhibitory activity [5]: no inhibitory activity
inhibitory activity (Lactobacillus plantarum): no inhibitory activity
inhibitory activity [6]: no inhibitory activity
CC50 (TZM-bl cells; Table 2, TZM-bl cells, 48 hours, alamarBlue): 136 µM

CC(C)(C)OC(=O)C1=NNC(c2ccccc2)C12C(=O)N1[C@@H](C(=O)OC(c3ccccc3)c3ccccc3)C(C)(C)S[C@@H]12 (some centres unmarked) [BSS-973C]
CC50 (TZM-bl cells): 79.8 µM

CC(=O)C1N=NC(c2ccccc2)C12C(=O)N1[C@@H](C(=O)OC(c3ccccc3)c3ccccc3)C(C)(C)S[C@@H]12 (some centres unmarked) [BSS-974S]
CC50 (TZM-bl cells): 91.9 µM

COC(=O)C1=C[C@@]2(N=N1)C(=O)N1[C@@H](C(=O)OC(c3ccccc3)c3ccccc3)C(C)(C)S[C@@H]12 [BSS-452]
anti-Plasmodium activity (in words) (P. berghei liver stages): did not display anti-Plasmodium activity
CC50 (TZM-bl cells): 105 µM
anti-HIV activity (in words) (HIV): non-active

CC(=O)C1=NNC2(C1)C(=O)N1C(C(=O)O)C(C)(C)SC12 (centres unmarked) [BSS-591, Spiro[penicillanic-6,5′-(3-acetyl-2-pyrazoline)] acid]
inhibitory activity [1]: no inhibitory activity
inhibitory activity [2]: no inhibitory activity
inhibitory activity [3]: no inhibitory activity
inhibitory activity (Lactobacillus rhamnosus): no inhibitory activity
inhibitory activity [4]: no inhibitory activity
inhibitory activity [5]: no inhibitory activity
inhibitory activity (Lactobacillus plantarum): no inhibitory activity
inhibitory activity [6]: no inhibitory activity
CC50 (TZM-bl cells): 164 µM

CC(=O)C1C(C)C=C(C(=O)OCc2ccccc2)C12C(=O)N1[C@@H](C(=O)OC(c3ccccc3)c3ccccc3)C(C)(C)S[C@@H]12 (some centres unmarked) [BSS-794B]
CC50 (TZM-bl cells): 49 µM

COC(=O)C1C(C(=O)OCc2ccccc2)=CCC12C(=O)N1[C@@H](C(=O)OC(c3ccccc3)c3ccccc3)C(C)(C)S[C@@H]12 (some centres unmarked) [BSS-722A]
anti-Plasmodium activity (in words) (P. berghei liver stages): presented activity
anti-HIV activity against HIV-1 (in words) (HIV-1): potent activity
MPI (maximum percentage of inhibition) (HIV-1; [7]): 99%
TI (in vitro therapeutic index, CC50/IC50) (HIV-1; [7]): 161.80
IC50 (HIV-1; [7]): 0.332 µM
IC90 (HIV-1; [7]): 0.701 µM
MPI (maximum percentage of inhibition) (HIV-1; [8]): 97%
TI (in vitro therapeutic index, CC50/IC50) (HIV-1; [8]): 82.64
IC50 (HIV-1; [8]): 0.65 µM
IC90 (HIV-1; [8]): 1.09 µM
anti-HIV activity against HIV-2 (in words) (HIV-2): potent activity
TI (in vitro therapeutic index, CC50/IC50) (HIV-2; 03PTHCC19, CCR5 tropic HIV-2 isolate): 105.29
IC50 (HIV-2; [9]): 0.51 µM
IC90 (HIV-2; [9]): 1.18 µM
MPI (maximum percentage of inhibition) (HIV-2; 03PTHCC19, CCR5 tropic HIV-2 isolate, wa = without antiviral activity): 90%
CC50 (TZM-bl cells): 53.7 µM
CC50 (TZM-bl cells; read-out: CC50 (cytotoxic concentration 50%), Table 1, TZM-bl cells, 48 hours, alamarBlue): 53.7 µM

COC(=O)C1=C(C(=O)OC)[C@@]2(N=N1)C(=O)N1[C@@H](C(=O)OC(c3ccccc3)c3ccccc3)C(C)(C)S[C@@H]12 [BSS-1026]
anti-Plasmodium activity (in words) (P. berghei liver stages): did not display anti-Plasmodium activity
CC50 (TZM-bl cells): 82 µM
anti-HIV activity (in words) (HIV): non-active

Source: US11666559B2, “Spiro-lactam compounds, process and uses thereof” (UNIVERSIDADE DE COIMBRA, priority 2017, dated 2023)
